From ChEMBL document CHEMBL1201862, “PubChem BioAssay data set” (2004)
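Growth conditions: 96-well plates. Treatment: test compound, 48 hours, 5 concentrations. Analysis: linear interpolation between bracketing concentrations; unreached endpoints set to highest concentration. Here, GI50 denotes the concentration required for 50% inhibition of growth.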 Activity calls are given as the source filed them. Rule as the data show it: active = GI50 up to about 1.1 µM and inactive = higher.

Tests used:
Assay in all cases: growth of human tumour cells (NCI), 48 h
NCI-H23 = system: NCI-H23
UO-31 = system: UO-31
RXF 393 = system: RXF 393
M14 = system: M14
HCC 2998 = system: HCC 2998
HCT-15 = system: HCT-15
CAKI-1 = system: CAKI-1
HL-60 = system: HL-60
HOP-92 = system: HOP-92
MDA-MB-435 = system: MDA-MB-435
SF-268 = system: SF-268
SNB-75 = system: SNB-75
K562 = system: K562
KM12 = system: KM12
NCI/ADR-RES = system: NCI/ADR-RES
U-251 = system: U-251
ACHN = system: ACHN
OVCAR-4 = system: OVCAR-4
SN12C = system: SN12C
SK-OV-3 = system: SK-OV-3

| SMILES | GI50 (NCI-H23) | GI50 (UO-31) | GI50 (RXF 393) | GI50 (M14) | GI50 (HCC 2998) | GI50 (HCT-15) | GI50 (CAKI-1) | GI50 (HL-60) | GI50 (HOP-92) | GI50 (MDA-MB-435) | GI50 (SF-268) | GI50 (SNB-75) | GI50 (K562) | GI50 (KM12) | GI50 (NCI/ADR-RES) | GI50 (U-251) | GI50 (ACHN) | GI50 (OVCAR-4) | GI50 (SN12C) | GI50 (SK-OV-3) |
| --- | --- | --- | --- | --- | --- | --- | --- | --- | --- | --- | --- | --- | --- | --- | --- | --- | --- | --- | --- | --- |
| CC1=NN(c2cccc(Cl)c2)C2(SCC(=O)N2c2nc3ccccc3s2)/C1=C\c1cccs1 (stereo not given) | 18.5 µM (inactive) | 22.4 µM (inactive) | 20.3 µM (inactive) | 29.7 µM (inactive) | 16.6 µM (inactive) | 20.7 µM | 29.7 µM (inactive) | 27.9 µM (inactive) | 22.2 µM (inactive) | 30.5 µM (inactive) | 18.9 µM (inactive) | 17.5 µM (inactive) | 4.58 µM (inactive) | 25.8 µM (inactive) | 21.9 µM (inactive) | 20.3 µM (inactive) | 27.9 µM (inactive) | 21 µM (inactive) | – | – |
| CC(C(=O)ON1C(=O)CCC1=O)c1ccc(C(=O)c2ccccc2)s1 (stereo not given) | > 100 µM (inactive) | > 100 µM (inactive) | > 100 µM (inactive) | > 100 µM (inactive) | > 100 µM (inactive) | > 100 µM | > 100 µM (inactive) | – | > 100 µM (inactive) | > 100 µM (inactive) | > 100 µM (inactive) | > 100 µM (inactive) | > 100 µM (inactive) | > 100 µM (inactive) | > 100 µM (inactive) | > 100 µM (inactive) | > 100 µM (inactive) | > 100 µM (inactive) | > 100 µM (inactive) | > 100 µM (inactive) |
| Cc1cccc(C)c1NC(=S)NC=C(C(N)=O)C(N)=O | > 100 µM (inactive) | > 100 µM (inactive) | > 100 µM (inactive) | > 100 µM (inactive) | > 100 µM (inactive) | > 100 µM | > 100 µM (inactive) | – | > 100 µM (inactive) | > 100 µM (inactive) | > 100 µM (inactive) | > 100 µM (inactive) | > 100 µM (inactive) | > 100 µM (inactive) | > 100 µM (inactive) | > 100 µM (inactive) | > 100 µM (inactive) | > 100 µM (inactive) | > 100 µM (inactive) | > 100 µM (inactive) |
| O=c1c2cc([N+](=O)[O-])ccc2oc2nc3n(c(=O)c12)CCCS3 | > 100 µM (inactive) | > 100 µM (inactive) | > 100 µM (inactive) | > 100 µM (inactive) | > 100 µM (inactive) | > 100 µM | > 100 µM (inactive) | – | > 100 µM (inactive) | > 100 µM (inactive) | > 100 µM (inactive) | 64.9 µM (inactive) | > 100 µM (inactive) | > 100 µM (inactive) | > 100 µM (inactive) | > 100 µM (inactive) | > 100 µM (inactive) | > 100 µM (inactive) | > 100 µM (inactive) | > 100 µM (inactive) |
| C=CCn1c2ccccc2[n+]2cc([N+](=O)[O-])ccc12 | 20 µM (inactive) | 48.4 µM (inactive) | 67.3 µM (inactive) | 36.3 µM (inactive) | 54.8 µM (inactive) | 34.5 µM | 32.1 µM (inactive) | 17.3 µM (inactive) | 18.9 µM (inactive) | 26.4 µM (inactive) | – | 33.1 µM (inactive) | 13 µM (inactive) | 40.1 µM (inactive) | 57 µM (inactive) | 31.9 µM (inactive) | 33.1 µM (inactive) | 77.4 µM (inactive) | 27.3 µM (inactive) | 47.2 µM (inactive) |
| N/C(S)=N/N=C/c1ncccc1O | 0.597 µM (active) | 0.701 µM (active) | 0.843 µM (active) | 1.95 µM (inactive) | 9.08 µM (inactive) | 1.5 µM | 0.927 µM (active) | – | 0.52 µM (active) | 3.81 µM (inactive) | – | 1.94 µM (inactive) | 1.83 µM (inactive) | 2.6 µM (inactive) | 0.757 µM (active) | 1.73 µM (inactive) | 0.766 µM (active) | 2.96 µM (inactive) | 0.964 µM (active) | 4.21 µM (inactive) |
| COc1cc(C(=O)OCCn2[nH]c(-c3ccc(Cl)cc3)nc2=S)cc(OC)c1OC | 49.1 µM (inactive) | 1.3 µM (inactive) | 1.33 µM (inactive) | 38.3 µM (inactive) | 56.4 µM (inactive) | 36 µM | 37.7 µM (inactive) | 38.9 µM (inactive) | 27.5 µM (inactive) | 51.1 µM (inactive) | 34.3 µM (inactive) | – | 47.8 µM (inactive) | > 100 µM (inactive) | 57 µM (inactive) | 83.8 µM (inactive) | > 100 µM (inactive) | 95.5 µM (inactive) | 91.8 µM (inactive) | > 100 µM (inactive) |
| COC(=O)/C=C(\S/C(=N\n1cc(C(=O)OC)c(C(=O)OC)c1-c1ccc(C)cc1)c1ccc(C)cc1)C(=O)OC | 5.62 µM (inactive) | 2.52 µM (inactive) | 5.47 µM (inactive) | 5.94 µM (inactive) | 18.7 µM (inactive) | 2.28 µM | – | 4.62 µM (inactive) | 2.8 µM (inactive) | 5.94 µM (inactive) | 16.1 µM (inactive) | 11.5 µM (inactive) | 1.43 µM (inactive) | 19.1 µM (inactive) | 6.87 µM (inactive) | 5.66 µM (inactive) | 2.34 µM (inactive) | 1.58 µM (inactive) | 6.18 µM (inactive) | 32.3 µM (inactive) |
| COC(=O)CCC(NC(=O)OC(C)(C)C)C(=O)NC(Cc1ccc(NC(=O)CCCC(C)=O)cc1)C(=O)NC(CCC(=O)OC)C(=O)OC (stereo not given) | > 100 µM (inactive) | > 100 µM (inactive) | > 100 µM (inactive) | > 100 µM (inactive) | > 100 µM (inactive) | > 100 µM | > 100 µM (inactive) | – | > 100 µM (inactive) | > 100 µM (inactive) | > 100 µM (inactive) | > 100 µM (inactive) | > 100 µM (inactive) | > 100 µM (inactive) | > 100 µM (inactive) | – | > 100 µM (inactive) | > 100 µM (inactive) | > 100 µM (inactive) | > 100 µM (inactive) |
| O=C(O)C1CCCN1Cc1cc2ccccc2c2ccccc12 (stereo not given) | > 100 µM (inactive) | > 100 µM (inactive) | > 100 µM (inactive) | > 100 µM (inactive) | – | > 100 µM | > 100 µM (inactive) | > 100 µM (inactive) | > 100 µM (inactive) | > 100 µM (inactive) | > 100 µM (inactive) | > 100 µM (inactive) | 40.1 µM (inactive) | > 100 µM (inactive) | > 100 µM (inactive) | > 100 µM (inactive) | > 100 µM (inactive) | > 100 µM (inactive) | > 100 µM (inactive) | > 100 µM (inactive) |
| COc1ccc(C2SC(=N)Nc3c2c(C)nn3C(=O)c2ccccc2O)cc1OC (stereo not given) | 3.52 µM (inactive) | 4.61 µM (inactive) | 3.61 µM (inactive) | 7.11 µM (inactive) | – | 4.78 µM | 6.59 µM (inactive) | 2.16 µM (inactive) | 1.08 µM (active) | 2.81 µM (inactive) | 5.32 µM (inactive) | 3.09 µM (inactive) | 3.53 µM (inactive) | 6.55 µM (inactive) | 5.52 µM (inactive) | 4.5 µM (inactive) | 3.91 µM (inactive) | 7.93 µM (inactive) | 5.98 µM (inactive) | 2.54 µM (inactive) |
| O=C(NCc1cccc2ccccc12)N/N=C\c1ccc(Cl)cc1 | > 100 µM (inactive) | > 100 µM (inactive) | > 100 µM (inactive) | 74.5 µM (inactive) | 57.7 µM (inactive) | > 100 µM | 43.2 µM (inactive) | > 100 µM (inactive) | 74.8 µM (inactive) | 28.1 µM (inactive) | 93.8 µM (inactive) | 62.8 µM (inactive) | > 100 µM (inactive) | 49 µM (inactive) | > 100 µM (inactive) | > 100 µM (inactive) | > 100 µM (inactive) | > 100 µM (inactive) | > 100 µM (inactive) | – |
| COc1cc2c(c(OC)c1OC)-c1ccc(OC)c(=O)cc1[C@@H](NC(=O)c1ccccc1)CC2 | 0.0128 µM (active) | 0.449 µM (active) | 0.0234 µM (active) | 0.0118 µM (active) | 0.0162 µM (active) | 0.021 µM | 0.0206 µM (active) | < 0.01 µM (active) | 0.0173 µM (active) | < 0.01 µM (active) | 0.0154 µM (active) | < 0.0327 µM (active) | < 0.0114 µM (active) | 0.0106 µM (active) | 0.168 µM (active) | 0.0147 µM (active) | 0.0305 µM (active) | – | 0.0146 µM (active) | 0.0646 µM (active) |
| Cc1ccc(S(=O)(=O)NC(=O)NNc2ccc(F)cc2)cc1 | > 10 µM (inactive) | > 31.6 µM (inactive) | > 100 µM (inactive) | > 100 µM (inactive) | > 100 µM (inactive) | > 100 µM | > 100 µM (inactive) | > 100 µM (inactive) | > 100 µM (inactive) | > 100 µM (inactive) | > 100 µM (inactive) | – | – | > 100 µM (inactive) | > 44 µM (inactive) | > 100 µM (inactive) | > 100 µM (inactive) | > 100 µM (inactive) | > 100 µM (inactive) | > 100 µM (inactive) |
| C1CSCCSCCS1 | > 100 µM (inactive) | > 100 µM (inactive) | > 100 µM (inactive) | > 100 µM (inactive) | > 100 µM (inactive) | > 100 µM | – | > 100 µM (inactive) | > 100 µM (inactive) | > 100 µM (inactive) | > 100 µM (inactive) | > 100 µM (inactive) | > 100 µM (inactive) | > 100 µM (inactive) | > 100 µM (inactive) | > 100 µM (inactive) | – | > 100 µM (inactive) | > 100 µM (inactive) | > 100 µM (inactive) |
